Data as given in US8455475B2 (Gruenenthal GmbH, priority 2009, dated 2013).
Where a name gives a salt, the structure may show the parent alone.

Tests used:
[1] = target: T1, rat B1R (bradykinin receptor 1) (Rattus norvegicus, UniProt P97583); test: FLIPR Ca2+ assay (Fluo-4) on CHO K1 cells stably transfected with the B1R gene of the rat (rB1R cells): % inhibition at 10 μM / IC50, agonist Des-Arg9-bradykinin; format: cell-based; settings: for inhibition at 10 µM: CHO-K1, rat B1R
T1 construct: expressed in transfected cells; host or cells: CHO K1 cells
T1 sequence (P97583 1-337): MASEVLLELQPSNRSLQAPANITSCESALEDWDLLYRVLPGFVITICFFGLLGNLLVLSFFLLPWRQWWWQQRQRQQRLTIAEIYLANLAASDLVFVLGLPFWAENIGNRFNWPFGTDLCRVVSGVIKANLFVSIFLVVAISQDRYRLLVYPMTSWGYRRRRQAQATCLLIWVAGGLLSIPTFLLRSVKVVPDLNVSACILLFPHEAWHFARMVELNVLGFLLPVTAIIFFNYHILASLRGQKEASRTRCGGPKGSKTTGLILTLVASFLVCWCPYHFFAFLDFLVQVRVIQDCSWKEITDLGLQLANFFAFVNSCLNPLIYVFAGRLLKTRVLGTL
Outline: (§1)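 Loading with Fluo-4 occurs for 60 min at 37 °C, or alternatively in buffer A, before FLIPR measurement. Compounds are applied, incubated 10–20 min, and then the EC80 agonist is added. Antagonism appears as reduced peak Ca2+ signal relative to maximal inhibition.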

[2] = target: T2, human B1R (bradykinin receptor 1) (Homo sapiens, UniProt P46663); test: FLIPR Ca2+ assay (Fluo-4) on CHO K1 cells stably transfected with the human B1R gene (hB1R cells): % inhibition at 10 μM / IC50, agonist Lys-Des-Arg9-bradykinin; format: cell-based; settings: for inhibition at 10 µM: CHO-K1, human B1R
T2 construct: expressed in transfected cells; host or cells: CHO K1 cells
T2 sequence (P46663 1-353): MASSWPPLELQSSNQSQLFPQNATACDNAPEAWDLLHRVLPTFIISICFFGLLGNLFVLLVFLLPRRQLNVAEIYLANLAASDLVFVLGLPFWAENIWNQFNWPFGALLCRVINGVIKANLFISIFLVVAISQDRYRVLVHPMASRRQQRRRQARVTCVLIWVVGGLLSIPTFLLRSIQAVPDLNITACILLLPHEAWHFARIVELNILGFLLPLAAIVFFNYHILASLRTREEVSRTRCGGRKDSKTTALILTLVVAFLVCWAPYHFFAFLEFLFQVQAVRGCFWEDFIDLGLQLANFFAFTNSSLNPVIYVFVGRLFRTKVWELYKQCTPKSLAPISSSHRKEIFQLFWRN
Outline: as §1

CN(C(=O)c1ccccc1Cl)C1CCc2ccc(C(=O)N3CCC4(CCN(Cc5ccncc5)CC4)CC3)cc21 (stereo not drawn) [Ind_CC-109, 2-chloro-N-methyl-N-[6-[9-(pyridin-4-yl-methyl)-3,9-diazaspiro[5.5]undecane-3-carbonyl]-2,3-dihydro-1H-inden-1-yl]-benzamide]
inhibition at 10 µM [1]: 29%
inhibition at 10 µM [2]: 33%

COc1cc(C)c(C(=O)NC2CCc3ccc(C(=O)N4CCC5(CC4)CCN(c4cccnc4)CC5)cc32)c(C)c1 (stereo not drawn) [Ind_CC-090, 4-methoxy-2,6-dimethyl-N-[6-(9-pyridin-3-yl-3,9-diazaspiro[5.5]undecane-3-carbonyl)-2,3-dihydro-1H-inden-1-yl]-benzamide]
inhibition at 10 µM [1]: 100%
inhibition at 10 µM [2]: 42%

CC1(C)CC(NC(=O)c2cccc(Cl)c2Cl)c2cc(C(=O)N3CCC4(CC3)CCN(c3ccncc3)CC4)ccc21 (stereo not drawn) [IND_CC-283, 2,3-Dichloro-N-[3,3-dimethyl-6-(3-pyridin-4-yl-3,9-diazaspiro[5.5]undecane-9-carbonyl)-1,2-dihydro-inden-1-yl]-benzamide]
inhibition at 10 µM [1]: 107%
inhibition at 10 µM [2]: 96%

O=C(NC1CCc2ccc(C(=O)N3CCC4(CC3)CCN(c3ccncc3)CC4)cc21)c1ccccc1C(F)(F)F (stereo not drawn) [Ind_CC-003, N-[6-(9-pyridin-4-yl-3,9-diazaspiro[5.5]undecane-3-carbonyl)-2,3-dihydro-1H-inden-1-yl]-2-(trifluoromethyl)-benzamide]
inhibition at 10 µM [1]: 101%
inhibition at 10 µM [2]: 99%

O=C(NC1CCc2ccc(C(=O)N3CCC4(CC3)CCN(c3ccncc3)C4)cc21)C(c1ccccc1)c1ccccc1Cl (stereo not drawn) [Ind_CC-051, 2-(2-chlorophenyl)-2-phenyl-N-[6-(2-pyridin-4-yl-2,8-diazaspiro[4.5]decane-8-carbonyl)-2,3-dihydro-1H-inden-1-yl]-acetamide]
inhibition at 10 µM [1]: 99%
inhibition at 10 µM [2]: 71%

CC1(C)CC(NC(=O)c2c(Cl)cccc2Cl)c2cc(C(=O)N3CCC4(CC3)CCN(c3ccncc3)CC4)ccc21 (stereo not drawn) [IND_CC-288, 2,6-Dichloro-N-[3,3-dimethyl-6-(3-pyridin-4-yl-3,9-diazaspiro[5.5]undecane-9-carbonyl)-1,2-dihydro-inden-1-yl]-benzamide]
inhibition at 10 µM [1]: 106%
inhibition at 10 µM [2]: 100%

O=C(N[C@@H]1CCCc2cc(F)c(C(=O)N3CCC4(CC3)CCN(c3ccncc3)C4)cc21)c1ccccc1Cl [Example H-87, 2-Chloro-N-[(1R)-6-fluoro-7-(3-pyridin-4-yl-3,8-diazaspiro[4.5]decane-8-carbonyl)-1,2,3,4-tetrahydro-naphthalen-1-yl]-benzamide]
inhibition at 10 µM [1]: 103%
inhibition at 10 µM [2]: 99%

Cc1ccc(C(=O)NC2CCc3ccc(C(=O)N4CCC5(CC4)CCN(c4ccncc4)CC5)cc32)c(F)c1 (stereo not drawn) [IND_CC-305, 2-Fluoro-4-methyl-N-[6-(9-pyridin-4-yl-3,9-diazaspiro[5.5]undecane-3-carbonyl)-2,3-dihydro-1H-inden-1-yl]-benzamide]
inhibition at 10 µM [1]: 104%
inhibition at 10 µM [2]: 67%

O=C(c1ccc2c(c1)[C@H](NS(=O)(=O)c1cc(Cl)ccc1Cl)CC2)N1CCC2(CCN(c3ccncc3)CC2)C1 [Example H-142, 2,5-Dichloro-N-[(1R)-6-(8-pyridin-4-yl-3,8-diazaspiro[4.5]decane-3-carbonyl)-2,3-dihydro-1H-inden-1-yl]-benzenesulfonic acid amide]
inhibition at 10 µM [1]: 103%
inhibition at 10 µM [2]: 98%

COc1ccc(C(=O)N(C)C2CCc3ccc(C(=O)N4CCC5(CC4)CCN(c4ccncc4)CC5)cc32)c(F)c1 (stereo not drawn) [IND_CC-296, 2-Fluoro-4-methoxy-N-methyl-N-[6-(9-pyridin-4-yl-3,9-diazaspiro[5.5]undecane-3-carbonyl)-2,3-dihydro-1H-inden-1-yl]-benzamide]
inhibition at 10 µM [1]: 103%
inhibition at 10 µM [2]: 59%

O=C(Nc1ccc(Cl)c(Cl)c1)NC1CCc2ccc(C(=O)N3CCC4(CC3)CCN(c3ccncc3)CC4)cc21 (stereo not drawn) [Ind_CC-011]
% Inhibition (rat B1R) at 10 μM [1]: 76%
% Inhibition (human B1R) at 10 μM [2]: 36%

CN1CCN(C(=O)C2CCC3(CC2)CCN(C(=O)c2ccc4c(c2)[C@H](NC(=O)c2ccccc2Cl)CC4)CC3)CC1 [Example H-29, 2-chloro-N-[(1R)-6-[9-(4-methyl-piperazine-1-carbonyl)-3-azaspiro[5.5]undecane-3-carbonyl]-2,3-dihydro-1H-inden-1-yl]-benzamide]
inhibition at 10 µM [1]: 55%
inhibition at 10 µM [2]: 33%

CC1(C)CC(NC(=O)c2ccccn2)c2cc(C(=O)N3CCC4(CC3)CCN(c3ccncc3)CC4)ccc21 (stereo not drawn) [Ind_CC-052, N-[3,3-dimethyl-6-(9-pyridin-4-yl-3,9-diazaspiro[5.5]undecane-3-carbonyl)-1,2-dihydro-inden-1-yl]-pyridine-2-carboxylic acid amide]
inhibition at 10 µM [1]: 81%
inhibition at 10 µM [2]: 62%

O=C(NC1CCc2ccc(C(=O)N3CCC4(CCN(c5ccncc5)CC4)C3)cc21)c1c(Cl)cccc1Cl (stereo not drawn) [IND_CC-289, 2,6-Dichloro-N-[6-(8-pyridin-4-yl-2,8-diazaspiro[4.5]decane-2-carbonyl)-2,3-dihydro-1H-inden-1-yl]-benzamide]
inhibition at 10 µM [1]: 104%
inhibition at 10 µM [2]: 100%

O=C(N[C@@H]1CCc2ccc(C(=O)N3CCC4(CC3)CCN(c3ccncc3)CC4)cc21)c1c(Cl)cccc1C(F)(F)F [Example H-85, 2-Chloro-N-[(1R)-6-(9-pyridin-4-yl-3,9-diazaspiro[5.5]undecane-3-carbonyl]-2,3-dihydro-1H-inden-1-yl]-6-(trilfuoromethyl)-benzamide]
inhibition at 10 µM [1]: 103%
inhibition at 10 µM [2]: 100%

O=C(N[C@@H]1CCc2cc(F)c(C(=O)N3CCC4(CCN(c5ccncc5)CC4)C3)cc21)c1ccccc1Cl [Example H-64, 2-Chloro-N-[(1R)-5-fluoro-6-(8-pyridin-4-yl-3,8-diazaspiro[4.5]decane-3-carbonyl)-2,3-dihydro-1H-inden-1-yl]-benzamide hydrochloride]
inhibition at 10 µM [1]: 105%
inhibition at 10 µM [2]: 100%

O=C(N[C@@H]1CCc2ccc(C(=O)N3CCC4(CCN(c5ccncc5)CC4)C3)cc21)c1cccc(F)c1Cl [Example H-153, 2-Chloro-3-fluoro-N-[(1R)-6-(8-pyridin-4-yl-3,8-diazaspiro[4.5]decane-3-carbonyl)-2,3-dihydro-1H-inden-1-yl]-benzamide]
inhibition at 10 µM [1]: 105%
inhibition at 10 µM [2]: 99%

O=C(N[C@@H]1CCc2cc(F)c(C(=O)N3CCC4(CC3)CCN(c3ccncc3)CC4)cc21)c1ccccc1Cl [Example H-90, 2-Chloro-N-[(1R)-5-fluoro-6-(9-pyridin-4-yl-3,9-diazaspiro[5.5]undecane-3-carbonyl)-2,3-dihydro-1H-inden-1-yl]-benzamide]
inhibition at 10 µM [1]: 103%
inhibition at 10 µM [2]: 100%

O=C(NC1CCc2ccc(C(=O)N3CCC4(CCN(c5cc[n+]([O-])cc5)CC4)C3)cc21)c1ccccc1Cl (stereo not drawn) [Example H-129, 2-Chloro-N-[6-[8-(1-oxido-pyridin-1-ium-4-yl)-3,8-diazaspiro[4.5]decane-3-carbonyl]-2,3-dihydro-1H-inden-1-yl]-benzamide]
inhibition at 10 µM [1]: 102%
inhibition at 10 µM [2]: 100%

Cc1ccccc1CC(=O)N[C@@H]1CCc2ccc(C(=O)N3CCC4(CCN(c5ccncc5)CC4)C3)cc21 [Example H-154, 2-(o-Tolyl)-N-[(1R)-6-(8-pyridin-4-yl-3,8-diazaspiro[4.5]decane-3-carbonyl)-2,3-dihydro-1H-inden-1-yl]-acetamide]
inhibition at 10 µM [1]: 105%
inhibition at 10 µM [2]: 99%

O=C(NC1CCc2ccc(C(=O)N3CCC4(CCN(Cc5ccc(F)cc5Cl)CC4)C3)cc21)c1ccccc1Cl (stereo not drawn) [IND_CC-556, 2-Chloro-N-[6-[8-[(2-chloro-4-fluoro-phenyl)-methyl]-2,8-diazaspiro[4.5]decane-2-carbonyl]-2,3-dihydro-1H-inden-1-yl]-benzamide]
inhibition at 10 µM [1]: 100%
inhibition at 10 µM [2]: 7%

O=C(NC1CCc2ccc(C(=O)N3CCC4(CCN(c5ccncc5)CC4)C3)cc21)c1ccccc1Cl (stereo not drawn) [Example H-05, 2-chloro-N-[6-(8-pyridin-4-yl-3,8-diazaspiro[4.5]decane-3-carbonyl)-2,3-dihydro-1H-inden-1-yl]-benzamide]
% Inhibition (rat B1R) at 10 μM ([1]; 10 µM): 105%
% Inhibition (human B1R) at 10 μM [2]: 100%

O=C(NC1CCc2ccc(C(=O)N3CCC4(CCC(N5CCC5)CC4)CC3)cc21)c1ccccc1Cl (stereo not drawn) [Example H-06, N-[6-[9-(azetidin-1-yl)-3-azaspiro[5.5]undecane-3-carbonyl)-2,3-dihydro-1H-indan-1-yl]-2-chloro-benzamide]
inhibition at 10 µM [1]: 98%
inhibition at 10 µM [2]: 60%

Cc1ccc(F)c(C(=O)NC2CC(C)(C)c3ccc(C(=O)N4CCC5(CC4)CCN(c4ccncc4)CC5)cc32)c1Cl (stereo not drawn) [IND_CC-248, 2-Chloro-N-[3,3-dimethyl-6-(3-pyridin-4-yl-3,9-diazaspiro[5.5]undecane-9-carbonyl)-1,2-dihydro-inden-1-yl]-6-fluoro-3-methyl-benzamide]
inhibition at 10 µM [1]: 102%
inhibition at 10 µM [2]: 90%
